Reference: patent publication US6762189B1, “5-pyrimidinecarboxamide derivatives and the pharmaceutical compositions containing said derivatives” (Dong Wha Pharm. Ind. Co., Ltd., priority 1999, dated 2004)

Key:
[1] = Cytotoxicity test on HepG2 cells (MTT); assay type: cell-based; settings: human, read-out: Cytotoxity on HepG2, IC50 (50% Inhibitory Concentration)
HepG2 cells = test: Cytotoxicity test on HepG2 cells (MTT); assay type: cell-based
HBV polymerase = target: T1, HBV polymerase (Hepatitis B virus genotype A2 subtype adw2, UniProt P03159); test: In vitro reverse transcription activity of HBV polymerase (ELISA-type, DIG/biotin nucleotides); assay type: biochemical; settings: read-out: Inhibition activity on HBV-RT (%); for inhibition at 0.01 µg/mL: 0.01 μg/ml test compound; for inhibition at 0.1 µg/mL: 0.1 μg/ml test compound; for inhibition at 1 µg/mL: 1 μg/ml test compound
T1 construct: made in house; host or cells: E. coli
Experimental: The following in vitro experiment was performed to determine the effect of the compounds of formula 1 on the activity of HBV polymerase during reverse transcription.
The present inventors submitted application for a patent concerning HBV polymerase genetically expressed in and separated from E. coli, the process of its preparation, and the method to measure the enzyme activities (KR 94-3918, KR 96-33998). In the present experiments HBV polymerase was used which had been expressed in E. coli as stated above.
The method used in the present invention to measure in vitro reverse transcribing activities of HBV polymerase is as follows. Basic principles are the same as for ELISA. Nucleotides with biotin or digoxigenin group attached are included as substrates and anti-DIG antibodies attached to peroxidase enzyme recognize the polymerized substrates.
To the wells coated with streptavidin, 20 μl of HBV polymerase, 20 μl of reaction mixture (10 μM each of DIG-UTP and Biotin-UTP, 46 mM Tris-HCl, 266 mM KCl, 27.5 mM MgCl2, 9.2 mM DTT substrate/primer hybrid), and 20 μl of test compound (added to 1, 0.1, and 0.01 μg/ml) were added and allowed to react a 22° C. for 15 hrs. During this reaction, HBV polymerase catalyzes DNA synthesis and digoxigenin and biotin attached to nucleotides form bonds with streptavidin coated on the bottom of wells. When the reaction was done, each well was washed with 250μl of cleaning buffer (pH 7.0) for 30 seconds, which was repeated five times to remove remaining impurities. 200 μl of anti-DIG-POD antibody was added to each well and allowed to react for 1 hr at 37° C., and the wells were washed with cleaning buffer to remove impurities. 200μl each of ABTS™, a substrate of peroxidase, was then added and allowed to react at room temperature for 30 min. Absorbance was measured at 405 nm using ELISA reader.
The percentage of reduction in HBV polymerase activities for reverse transcription was calculated using the group without test compound as a control and the results are shown in Table 3.

[2] = target: T2, HIV reverse transcriptase (Human immunodeficiency virus type 1 group M subtype B, UniProt P04585); test: In vitro HIV reverse transcriptase activity (non-radioactive reverse transcriptase assay kit); assay type: biochemical; settings: for Inhibitory effect on the activities of HIV reverse transcriptase, Inhibition activity on HBV-RT (%): 0.1 μg/ml test compound; for Inhibition of HIV reverse transcriptase activity: 1 μg/ml test compound
T2 construct: activities of HIV reverse transcriptase; purchased Boehringer Mannheim
Experimental: The following in vitro experiments were done to determine the effect of compounds of formula 1 on the reduction of HIV enzyme activities in reverse transcription.
Non-radioactive reverse transcriptase assay kit (Boehringer Mannheim) was used in the measurement of in vitro transcriptase activities. 20 μl (40 ng) of HIV transcriptase and 20 μl of reaction mixture containing matrix-primer hybrid poly (A) oligo (dT) 15, DIG(digoxigenin)-dUTP, biotin-dUTP, and TTP were added to wells coated with streptavidin. Test compounds were also added at the final concentrations of 0.1 and 1 μg/ml and allowed to react at 37° C. for 1 hr. At this time, DNA is formed from RNA by the action of HIV transcriptase, forming bonds with streptavidin coated on the bottom of wells because of digoxigenin and biotin moieties attached to nucleotides.
When the reaction was completed, each well was washed with 250 μl. of cleaning buffer (pH 7.0) for 30 sec. five times to remove remaining impurities. 200 μl of anti-DIG-POD […] was added to each well, allowed to react at 37° C. for 1 hr and washed as above to remove impurities. 200 μl of ABTS™, a substrate for peroxidase, was added to each well and allowed to react at room temperature for 30min. Absorbance at 405 nm was then read for each solution using ELISA reader and used for quantitative determination of inhibitory effect on the HIV transcriptase activities. The percentage of reduction in the activities of HIV reverse transcriptase was calculated using the group without test compound as control and the results are represented in Table 5.

HBV = test: Inhibition of HBV proliferation in HBV producing cell line HepG 2.2.15 (competitive PCR of culture supernatant); assay type: cell-based, Hepatitis B virus; settings: Hepatitis B virus, HepG2.2.15, 168 h, HepG 2.2.15, one week, read-out: Inhibitory effect on the HBV proliferation, Inhibition activity on HBV-RT (%); for inhibition at 0.01 µg/mL: 0.01 μg/ml; for inhibition at 0.1 µg/mL: 0.1 μg/ml; for inhibition at 1 µg/mL: 1 μg/ml
Experimental: The following experiment was performed to determine inhibitory effects of compounds of formula on the proliferation of HBV producing cell line.
To test for antiviral effect, replication and proliferation of HBV were measured in HepG 2.2.15, a human liver cancer cell line.
The cell concentration was adjusted to 1×10^5 cells/ml and 1 ml was added to each well of a 24-well cell culture plate, which was then kept in a culture box for 3-4 days at 37° C. under 5% CO2 until cells grew sufficiently, changing culture medium everyday. When the cells matured sufficiently, the test compounds were added to the final concentrations of 0.01, 0.1, and 1 μg/ml. One week after the addition of test compounds, he culture solution was centrifuged at 5,000 rpm for 10 min. 25 μl of supernatant was transferred to a new tube and 5 μl of lysis solution [0.54N NaOH, 0.06% NP40] was added to each tube. After keeping the tube at 37° C. for 1 hr, 30 μl . of neutralizing solution [0.09NHCl, 0.1MTris-HCl, pH7.4] was added as a reaction solution for competitive polymerase chain reaction (PCR).
PCR was performed using genetic sequence of HBV core protein as a matrix. PCR reaction was carried out by adding 1 unit of Taq polymerase enzyme to 25 pmol of each primer, 250 μM dNTP, 5 μl of PCR reaction solution [0.54N NaOH, 0.06% NP40, 0.09N HCl, 0.1M Tris-HCl, pH 7.4].
DNA polymerized by PCR was electrophoresed on Agarose gel and quantitatively analyzed using an image analyzer (Gel Dcc 1000, Bio-Rad) in order to evaluate the effect of compounds of the present invention on the reduction of HBV proliferation.
3TC (lamivudine) was used as a positive control at the same concentrations as those of the test compounds. The percentage of reduction in HBV proliferation was calculated using the group without test compound as a control and the results are represented in Table 4.

T1 sequence (P03159 whole entry): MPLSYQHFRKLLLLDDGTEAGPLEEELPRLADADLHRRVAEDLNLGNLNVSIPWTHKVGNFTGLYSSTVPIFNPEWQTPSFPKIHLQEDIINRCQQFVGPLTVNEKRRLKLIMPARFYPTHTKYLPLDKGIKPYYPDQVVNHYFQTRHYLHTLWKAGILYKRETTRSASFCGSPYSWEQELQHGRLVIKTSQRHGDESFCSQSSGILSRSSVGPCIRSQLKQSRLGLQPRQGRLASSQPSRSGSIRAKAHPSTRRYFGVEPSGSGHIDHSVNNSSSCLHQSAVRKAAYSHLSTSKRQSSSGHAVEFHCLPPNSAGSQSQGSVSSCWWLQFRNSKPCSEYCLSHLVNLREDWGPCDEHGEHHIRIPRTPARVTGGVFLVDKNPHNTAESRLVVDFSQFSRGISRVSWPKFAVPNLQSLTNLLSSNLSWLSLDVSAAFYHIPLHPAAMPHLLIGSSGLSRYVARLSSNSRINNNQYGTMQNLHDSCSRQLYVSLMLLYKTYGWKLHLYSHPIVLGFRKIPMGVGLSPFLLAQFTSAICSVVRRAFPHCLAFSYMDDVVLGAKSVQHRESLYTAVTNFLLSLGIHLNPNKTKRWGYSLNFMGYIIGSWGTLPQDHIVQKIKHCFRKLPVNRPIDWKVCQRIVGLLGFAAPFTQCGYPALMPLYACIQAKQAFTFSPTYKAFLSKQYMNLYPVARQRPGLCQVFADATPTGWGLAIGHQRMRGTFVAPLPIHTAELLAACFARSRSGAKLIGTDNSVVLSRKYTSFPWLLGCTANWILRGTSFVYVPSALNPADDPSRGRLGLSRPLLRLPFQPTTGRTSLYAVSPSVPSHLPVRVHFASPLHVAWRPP

CNC(=O)c1cnc(SC)nc1Nc1ccc2[nH]ncc2c1 [Example 3, 4-(1H-5-Indazolylamino)-N-methyl-2-methylthio-5-pyrimidine carboxamide]
IC50 [1]: > 100 µg/mL
Cytotoxity on HepG2, MCD (Minimal Cytotoxic Concentration) (HepG2 cells): 100 µg/mL
inhibition at 0.01 µg/mL (HBV polymerase): 34%
inhibition at 0.1 µg/mL (HBV polymerase): 59%
inhibition at 1 µg/mL (HBV polymerase): 88%
Inhibitory effect on the activities of HIV reverse transcriptase, Inhibition activity on HBV-RT (%) [2]: 48%
Inhibition of HIV reverse transcriptase activity [2]: 62%
inhibition at 0.01 µg/mL (HBV): 15%
inhibition at 0.1 µg/mL (HBV): 42%
inhibition at 1 µg/mL (HBV): 75%

CNC(=O)c1cnc(SC)nc1Nc1ccc2cn[nH]c2c1 [Example 4, 4-(1H-6-Indazolylamino)-N-methyl-2-methylthio-5-pyrimidinecarboxamide]
IC50 [1]: > 100 µg/mL
Cytotoxity on HepG2, MCD (Minimal Cytotoxic Concentration) (HepG2 cells): 100 µg/mL
inhibition at 0.01 µg/mL (HBV polymerase): 52%
inhibition at 0.1 µg/mL (HBV polymerase): 77%
inhibition at 1 µg/mL (HBV polymerase): 96%
Inhibitory effect on the activities of HIV reverse transcriptase, Inhibition activity on HBV-RT (%) [2]: 42%
Inhibition of HIV reverse transcriptase activity [2]: 70%
inhibition at 0.01 µg/mL (HBV): 32%
inhibition at 0.1 µg/mL (HBV): 70%
inhibition at 1 µg/mL (HBV): 94%

CSc1ncc(C(=O)NCCO)c(Nc2ccc3cn[nH]c3c2)n1 [Example 8, N-(2-hydroxyethyl)-4-(1H-6-indazolylamino)-2-methylthio-5-pyrimidine Carboxamide]
IC50 [1]: > 100 µg/mL
Cytotoxity on HepG2, MCD (Minimal Cytotoxic Concentration) (HepG2 cells): 100 µg/mL
inhibition at 0.01 µg/mL (HBV polymerase): 50%
inhibition at 0.1 µg/mL (HBV polymerase): 68%
inhibition at 1 µg/mL (HBV polymerase): 95%
inhibition at 0.01 µg/mL (HBV): 40%
inhibition at 0.1 µg/mL (HBV): 72%
inhibition at 1 µg/mL (HBV): 88%

CSc1ncc(C(=O)N(C)C)c(Nc2ccc3cn[nH]c3c2)n1 [Example 16, N,N-dimethyl-4-(1H-6-indazolylamino)-2-methylthio-5-pyrimidinecarboxamide]
melting point: 164 to 166 °C
inhibition at 0.01 µg/mL (HBV polymerase): 10%
inhibition at 0.1 µg/mL (HBV polymerase): 30%
inhibition at 1 µg/mL (HBV polymerase): 54%
Inhibitory effect on the activities of HIV reverse transcriptase, Inhibition activity on HBV-RT (%) [2]: 53%
Inhibition of HIV reverse transcriptase activity [2]: 81%

CSc1ncc(C(=O)NCCN(C)C)c(Nc2ccc3cn[nH]c3c2)n1 [Example 18, N-[2-(dimethylamino)ethyl]-4-(1H-6-indazolylamino)-2-methylthio-5-pyrimidinecarboxamide]
melting point: 162 to 167 °C
inhibition at 0.01 µg/mL (HBV polymerase): 54%
inhibition at 0.1 µg/mL (HBV polymerase): 66%
inhibition at 1 µg/mL (HBV polymerase): 92%
Inhibitory effect on the activities of HIV reverse transcriptase, Inhibition activity on HBV-RT (%) [2]: 51%
Inhibition of HIV reverse transcriptase activity [2]: 77%
inhibition at 0.01 µg/mL (HBV): 43%
inhibition at 0.1 µg/mL (HBV): 57%
inhibition at 1 µg/mL (HBV): 88%

CSc1ncc(C(=O)NCCN2CCOCC2)c(Nc2ccc3[nH]ncc3c2)n1 [Example 19, 4-(1H-5-indazolylamino)-2-methylthio-N-[2-(4-morpholinyl)ethyl]-5-pyrimidinecarboxamide]
melting point: 113 to 117 °C
inhibition at 0.01 µg/mL (HBV polymerase): 10%
inhibition at 0.1 µg/mL (HBV polymerase): 39%
inhibition at 1 µg/mL (HBV polymerase): 64%
Inhibitory effect on the activities of HIV reverse transcriptase, Inhibition activity on HBV-RT (%) [2]: 48%
Inhibition of HIV reverse transcriptase activity [2]: 75%

CSc1ncc(C(=O)NCCCn2ccnc2)c(Nc2ccc3[nH]ncc3c2)n1 [Example 29, N-[3-(1H-1-imidazolyl)propyl]-4-(1H-5-indazolylamino)-2-methylthio-5-pyrimidinecarboxamide]
melting point: 121 to 125 °C
inhibition at 0.01 µg/mL (HBV polymerase): 41%
inhibition at 0.1 µg/mL (HBV polymerase): 56%
inhibition at 1 µg/mL (HBV polymerase): 80%
Inhibitory effect on the activities of HIV reverse transcriptase, Inhibition activity on HBV-RT (%) [2]: 44%
Inhibition of HIV reverse transcriptase activity [2]: 72%
